Patent US20230046728A1, “TECHNOLOGIES USEFUL FOR ASSESSING PERMEABILITY” (FOG PHARMACEUTICALS, INC., priority 2019, published 2023)

Tested on: Expi293 cells transfected with His-Halotag
Assay: Library cell penetration assay, cell crash method (Example 6)
Type: in vitro ADME, human
Procedure: Animal cells (e.g., Expi293 cells or human HEK 293 cells) were seeded in tissue culture plates and cultured in Opti-MEM media. The cells were set in PETG flasks at a concentration of 6×10^5 cells/mL and a volume of 30 mL. The cell viability was checked to be above 90-93%. The flasks were placed in a shaking incubator at 300 rpm in 8% CO2.
After 24 hours of incubation, for each flask, one 1.5-mL Lo-bind tube and one 2-mL Lo-Bind tube were prepared. In the 1.5-mL tube, 30 μg of polyhistidine-tagged halotag (His-Halotag) plasmid and Opti-MEM media were added to provide a 1-mL mixture. In the 2-mL Lo-Bind tube, 60 μL of ExpiFectamine and 940 μL of Opti-MEM were added. After 5 minutes, the plasmid/Opti-MEM mixture was added to the ExpiFectamine/Opti-MEM mixture. The combined mixture was placed in an incubator at room temperature for 20 minutes, which was subsequently added to the flask.
After 48 hours of transfection, the transfected cells were checked for viability (90% or higher). The transfected cells were transferred to a protein Lo-Bind Eppendorf 96-well deep well plate (1000 μL), where each well contained 1 million cells in 500 μL of Expi293 media.
Solutions of candidate compounds, either individual peptides or peptides from a peptide library (DPLs), were received at a stock concentration of 10 mM and diluted in DMSO and kept in a “Source Plate”. For DPLs, the peptide concentration in the “Source Plate” was 1 mM, whereas for individual peptides, the concentration was either 100 μM (for a final concentration of 100 nM) or 10 μM (for a final concentration of 10 nM). […] of the DPL or individual peptide solution was added in triplicates to the 96-well plate. The cells were kept in a shaking incubator at 300 rpm and 37 ° C., 8% CO2 overnight for about 18-20 hours.
The following day, one of the following two methods was performed: i) capture beads method or ii) cell crash method.
Cell crash method: the 96-well plate was placed in the centrifuge at 300 g for 5 minutes. 720 μL of the supernatant was removed. The cells were resuspended in residual 200 μL of media. The suspensions were transferred to a 96-well v-bottom plate, which was placed in the centrifuge at 300 g for an additional 5 minutes. All remaining media was removed. The cell pellets were washed with 200 μL of PBS, mixed and placed back in the centrifuge at 300 g and 4 ° C. for an additional 5 minutes. The supernatant was removed and 80 μL of PBS was added.
80 μL of eluted proteins/peptides from the capture beads method or the PBD solution from the cell crash method was transferred into a deepwell low binding plate (500 μL). 80 μL of ammonium hydroxide was added. The plate was kept on a shaker at 37 ° C. for 3 hours. The plate was dried in a speedvac overnight.
The following day, the dried cell pellet was resuspended in 70 μL of 47.5% water with 0.1% FA/47.5% ACN with 0.1% FA/10 μM pepmix (10 mM stock)/5% fresh DMSO. The mixture was let sit in the plate for 1 hour to allow the dissolution of the pellet. If the sample appeared cloudy, more resuspension solution was added (50 μL at a time). 50 μL was transferred directly to the mass spec plate and the plate was sealed with the 384-well plate seal.
Once all samples were added (including cell free), the plate was placed in an autosampler of a mass spectrometer. For the mass spectrometry analysis, methods from example 1 were employed.
Results from certain assessment were presented blow. Cell crash method was utilized. Mass Shifted Peptide Theoretical Max signal is signal of an agent comprising —OH obtained when using the DhaA to convert input agent comprising —Cl into product agent comprising —OH form without involving cells (multiple agents may be converted simultaneously; in some embodiments, can be performed library by library). In some embodiments, each library pool plus positive and negative references was tested in a single well, which in some cases contain about a million or so cells. […]

[1] = Mass Shifted Peptide Signal in Cells divided by Theoretical Max Signal per replicate pair, averaged
[2] = library pool tested as mixture, MS signal of unconverted —Cl agent
[3] = library pool tested as mixture, MS signal of —OH agent
[4] = MS signal of unconverted —Cl agent from cells, library pool or individual peptide
[5] = MS signal of —OH agent from cells, library pool or individual peptide
[6] = Mass Shifted Peptide Signal in Cells divided by Mass Shifted Peptide Theoretical Max Signal, averaged across replicates

Compound	Cell Penetration Score [1]	Peptide Signal in Cells (from cells; agents comprising —Cl) [2]	Mass Shifted Peptide Signal in Cells [3]	Peptide Signal in Cells (from cells; agents comprising —Cl) [4]	Mass Shifted Peptide Signal in Cells [5]	Cell Penetration Score [6]
CC(C)C[C@H](NC(=O)CCC(=O)NCCOCCOCCCCCCCl)C(=O)N[C@H](C(=O)N[C@@H](Cc1ccccc1)C(=O)N[C@]1(C)CCCCCCC=CCCC[C@@](C)(C(=O)N[C@@H](CO)C(=O)N[C@@H](C)C(=O)N[C@@H](C)C(N)=O)NC(=O)[C@H](CC2CCC2)NC(=O)[C@H](CCC(N)=O)NC(=O)[C@H](C)NC(=O)[C@H](Cc2c[nH]c3ccccc23)NC(=O)[C@H](Cc2ccc(O)cc2)NC(=O)[C@H](C)NC1=O)[C@@H](C)O [PEP000116, HaloTagO2-Leu-Thr-Phe-R8-Ala-Tyr-Trp-Ala-Gln-Cba-S5-Ser-Ala-Ala-NH2]	475	4E+07	4E+07			
CC(C)C[C@H](NC(=O)CCC(=O)NCCOCCOCCCCCCCl)C(=O)N[C@H](C(=O)N[C@@H](Cc1ccccc1)C(=O)N[C@]1(C)CCCCCCC=CCCC[C@@](C)(C(=O)N[C@@H](CO)C(=O)N[C@@H](C)C(=O)N[C@@H](C)C(N)=O)NC(=O)[C@H](CC2CCC2)NC(=O)[C@H](CCC(N)=O)NC(=O)[C@H](C)NC(=O)[C@H](Cc2c[nH]c3ccccc23)NC(=O)[C@H](Cc2ccc(O)cc2)NC(=O)[C@H]([C@@H](C)O)NC1=O)[C@@H](C)O [PEP000118, HaloTagO2-Leu-Thr-Phe-R8-Thr-Tyr-Trp-Ala-Gln-Cba-S5-Ser-Ala-Ala-NH2]	536	4E+07	4E+07			
CC(C)C[C@H](NC(=O)CCC(=O)NCCOCCOCCCCCCCl)C(=O)N[C@H](C(=O)N[C@@H](Cc1ccccc1)C(=O)N[C@]1(C)CCCCCCC=CCCC[C@@](C)(C(=O)N[C@@H](CO)C(=O)N[C@@H](C)C(=O)N[C@@H](C)C(N)=O)NC(=O)[C@H](CC2CCC2)NC(=O)[C@H](C)NC(=O)[C@H](C)NC(=O)[C@H](Cc2c[nH]c3ccccc23)NC(=O)[C@H](Cc2ccc(O)cc2)NC(=O)[C@H](CCC(=O)O)NC1=O)[C@@H](C)O [PEP000122, HaloTagO2-Leu-Thr-Phe-R8-Glu-Tyr-Trp-Ala-Ala-Cba-S5-Ser-Ala-Ala-NH2]	1188	8E+06	9E+07			
CC(C)C[C@H](NC(=O)CCC(=O)NCCOCCOCCCCCCCl)C(=O)N[C@H](C(=O)N[C@@H](Cc1ccccc1)C(=O)N[C@]1(C)CCCCCCC=CCCC[C@@](C)(C(=O)N[C@@H](CO)C(=O)N[C@@H](C)C(=O)N[C@@H](C)C(N)=O)NC(=O)[C@H](CC2CCC2)NC(=O)[C@H]([C@@H](C)O)NC(=O)[C@H](C)NC(=O)[C@H](Cc2c[nH]c3ccccc23)NC(=O)[C@H](Cc2ccc(O)cc2)NC(=O)[C@H](CCC(=O)O)NC1=O)[C@@H](C)O [PEP000123, HaloTagO2-Leu-Thr-Phe-R8-Glu-Tyr-Trp-Ala-Thr-Cba-S5-Ser-Ala-Ala-NH2]				1E+07	9E+07	1083

More lines, now with the values ahead:

Cell Penetration Score [1]	Peptide Signal in Cells (from cells; agents comprising —Cl) [2]	Mass Shifted Peptide Signal in Cells [3]	Peptide Signal in Cells (from cells; agents comprising —Cl) [4]	Mass Shifted Peptide Signal in Cells [5]	Cell Penetration Score [6]	Compound
757	3E+05	4E+07				CNC(=O)[C@H](C)NC(=O)[C@H](C)NC(=O)[C@H](CO)NC(=O)[C@]1(C)CCCC=CCCCCCC[C@@](C)(NC(=O)[C@H](Cc2ccccc2)NC(=O)[C@@H](NC(=O)[C@H](CC(C)C)NC(=O)CCC(=O)NCCOCCOCCCCCCCl)[C@@H](C)O)C(=O)N[C@@H](CCC(=O)O)C(=O)N[C@@H](Cc2ccc(O)cc2)C(=O)N[C@@H](Cc2c[nH]c3ccccc23)C(=O)N[C@@H](C)C(=O)N[C@@H](CCC(N)=O)C(=O)N[C@@H](CC2CCC2)C(=O)N1 (single isomer, unassigned) [PEP000120, HaloTagO2-Leu-Thr-Phe-R8-Glu-Tyr-Trp-Ala-Gln-Cba-S5-Ser-Ala-Ala-NHMe]
			4E+06	5E+07	888	CNC(=O)[C@H](C)NC(=O)[C@H](C)NC(=O)[C@H](CO)NC(=O)[C@]1(C)CCCC=CCCCCCC[C@@](C)(NC(=O)[C@H](Cc2ccccc2)NC(=O)[C@@H](NC(=O)[C@H](CC(C)C)NC(=O)CCC(=O)NCCOCCOCCCCCCCl)[C@@H](C)O)C(=O)N[C@@H](CCC(=O)O)C(=O)N[C@@H](Cc2ccc(O)cc2)C(=O)N[C@@H](Cc2c[nH]c3ccccc23)C(=O)N[C@@H](C)C(=O)N[C@@H](CCC(N)=O)C(=O)N[C@@H](CC2CCC2)C(=O)N1 (single isomer, unassigned) [PEP000125, HaloTagO2-Leu-Thr-Phe-R8-Glu-Tyr-Trp-Ala-Gln-Cba-S5-Ser-Ala-Ala-NHMe]
1141	1E+05	8E+07				CC(C)C[C@H](NC(=O)CCC(=O)NCCOCCOCCCCCCCl)C(=O)N[C@H](C(=O)N[C@@H](Cc1ccccc1)C(=O)N[C@]1(C)CCCCCCC=CCCC[C@@](C)(C(=O)N[C@@H](CO)C(=O)N[C@@H](C)C(=O)N[C@@H](C)C(N)=O)NC(=O)[C@H](CC2CCC2)NC(=O)[C@H](CCC(N)=O)NC(=O)[C@H](C)NC(=O)[C@H](Cc2c[nH]c3ccccc23)NC(=O)[C@H](Cc2ccc(O)cc2)NC(=O)[C@H](CCC(=O)O)NC1=O)[C@@H](C)O [PEP000117, HaloTagO2-Leu-Thr-Phe-R8-Glu-Tyr-Trp-Ala-Gln-Cba-S5-Ser-Ala-Ala-NH2]
304	1E+07	2E+07				CNC(=O)[C@H](C)NC(=O)[C@H](C)NC(=O)[C@H](CO)NC(=O)[C@]1(C)CCCC=CCCCCCC[C@@](C)(NC(=O)[C@H](Cc2ccccc2)NC(=O)[C@@H](NC(=O)[C@H](CC(C)C)NC(=O)CCC(=O)NCCOCCOCCCCCCCl)[C@@H](C)O)C(=O)N[C@@H](C)C(=O)N[C@@H](Cc2ccc(O)cc2)C(=O)N[C@@H](Cc2c[nH]c3ccccc23)C(=O)N[C@@H](C)C(=O)N[C@@H](CCC(N)=O)C(=O)N[C@@H](CC2CCC2)C(=O)N1 [PEP000119, HaloTagO2-Leu-Thr-Phe-R8-Ala-Tyr-Trp-Ala-Gln-Cba-S5-Ser-Ala-Ala-NHMe]
401	1E+07	2E+07				CNC(=O)[C@H](C)NC(=O)[C@H](C)NC(=O)[C@H](CO)NC(=O)[C@]1(C)CCCC=CCCCCCC[C@@](C)(NC(=O)[C@H](Cc2ccccc2)NC(=O)[C@@H](NC(=O)[C@H](CC(C)C)NC(=O)CCC(=O)NCCOCCOCCCCCCCl)[C@@H](C)O)C(=O)N[C@@H]([C@@H](C)O)C(=O)N[C@@H](Cc2ccc(O)cc2)C(=O)N[C@@H](Cc2c[nH]c3ccccc23)C(=O)N[C@@H](C)C(=O)N[C@@H](CCC(N)=O)C(=O)N[C@@H](CC2CCC2)C(=O)N1 [PEP000121, HaloTagO2-Leu-Thr-Phe-R8-Thr-Tyr-Trp-Ala-Gln-Cba-S5-Ser-Ala-Ala-NHMe]
			3E+06	5E+07	745	CNC(=O)[C@H](C)NC(=O)[C@H](C)NC(=O)[C@H](CO)NC(=O)[C@]1(C)CCCC=CCCCCCC[C@@](C)(NC(=O)[C@H](Cc2ccccc2)NC(=O)[C@@H](NC(=O)[C@H](CC(C)C)NC(=O)CCC(=O)NCCOCCOCCCCCCCl)[C@@H](C)O)C(=O)N[C@@H](CCC(=O)O)C(=O)N[C@@H](Cc2ccc(O)cc2)C(=O)N[C@@H](Cc2c[nH]c3ccccc23)C(=O)N[C@@H](C)C(=O)N[C@@H](C)C(=O)N[C@@H](CC2CCC2)C(=O)N1 [PEP000124, HaloTagO2-Leu-Thr-Phe-R8-Glu-Tyr-Trp-Ala-Ala-Cba-S5-Ser-Ala-Ala-NHMe]
